Series [1] deals with T1, P2X purinoceptor 7 (Homo sapiens, UniProt Q99572).
T1 sequence (Q99572 whole entry): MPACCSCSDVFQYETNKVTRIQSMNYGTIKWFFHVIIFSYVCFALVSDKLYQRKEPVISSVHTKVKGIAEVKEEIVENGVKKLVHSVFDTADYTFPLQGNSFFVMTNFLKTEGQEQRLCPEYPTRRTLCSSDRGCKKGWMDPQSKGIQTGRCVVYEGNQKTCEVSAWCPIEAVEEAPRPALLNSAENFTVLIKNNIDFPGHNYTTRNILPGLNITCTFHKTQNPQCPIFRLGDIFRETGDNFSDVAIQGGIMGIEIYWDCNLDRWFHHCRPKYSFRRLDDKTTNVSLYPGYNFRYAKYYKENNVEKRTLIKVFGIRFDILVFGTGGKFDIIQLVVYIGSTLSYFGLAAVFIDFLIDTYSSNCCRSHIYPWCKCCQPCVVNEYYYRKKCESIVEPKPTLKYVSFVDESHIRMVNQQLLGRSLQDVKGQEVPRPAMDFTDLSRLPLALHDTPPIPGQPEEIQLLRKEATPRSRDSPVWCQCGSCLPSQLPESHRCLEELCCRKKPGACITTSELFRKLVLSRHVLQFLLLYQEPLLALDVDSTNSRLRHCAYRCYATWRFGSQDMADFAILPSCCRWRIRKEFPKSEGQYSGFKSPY
In words: Antagonist activity at P2X7 receptor in human LPS-stimulated monocytes assessed as inhibition of ATP-induced IL1-beta release by ELISA. The class given is functional, cell-based.

The target of series [2] is T2, P2X purinoceptor 7 (Homo sapiens) (UniProt Q99572).
T2 sequence (whole entry): T1 sequence (Q99572 whole entry)
In words: Antagonist activity at P2X7 receptor in human LPS-stimulated monocytes assessed as inhibition of ATP-induced IL1-beta release at 5 uM by ELISA. The class given is functional, cell-based.

Series [3] addresses T1, P2X purinoceptor 7. In words: Antagonist activity at P2X7 receptor expressed in HEK293 cells assessed as inhibition of ATP-induced YOPRO-1 uptake. The class given is functional, cell-based.
Series [4] deals with T2, P2X purinoceptor 7 (Homo sapiens). In words: (§1) Antagonist activity at P2X7 receptor in human LPS-stimulated monocytes assessed as inhibition of ATP-induced IL1-beta release by ELISA in presence of human blood. The class given is functional, cell-based.
For series [5], the target named is T1, P2X purinoceptor 7. The series is described as §1. The class given is functional, cell-based.
Series [6] can be described thus: Plasma protein binding in human. The class given is ADME, cell-free. The following applies: read-out: PPB.
The next series relates to Liver microsomes. Kind of series: Metabolic stability in human liver microsomes assessed as compound turnover. The class given is ADME, Microsome.
The next series has as its system Hepatocyte. In words: Metabolic stability in human hepatocytes assessed as compound turnover. The class given is ADME, cell-based.
A short description of series [7]: Apparent permeability from apical to basolateral side of human Caco2 cells. The following applies: Caco-2. The class given is ADME, cell-based.
Series [8] in a line: Apparent permeability from basolateral to apical side of human Caco2 cells. The class given is ADME, cell-based. The conditions noted are these: Caco-2.
The next series has as its system Plasma. In words: (§2) Fraction unbound in human plasma. The class given is ADME, cell-free.
Series [9] is described as follows: Cmax in rat at 5 mg/kg, po. The class given is ADME, organism-based. More on the design: dose 5 mg/kg, route oral. The conditions noted are these: in vivo.
A short description of series [10]: in vivo. The conditions noted are these: rat, plasma.
In series [11] the target is T2, P2X purinoceptor 7 (Homo sapiens). In words: Antagonist activity at P2X7 receptor in human monocytes assessed as inhibition of LPS/ATP-induced IL1-beta release at 1 uM by ELISA. The class given is functional, cell-based.
Series [12] is described as follows: as §2. The class given is ADME, cell-free.
The nature of series [13]: Volume of distribution at steady state in rat. The following applies: in vivo, read-out: Vdss. The class given is ADME, organism-based.
Series [14] in a line: Half life in rat. The class given is ADME, organism-based. The following applies: in vivo.
A short description of series [15]: Oral bioavailability in rat at 5 mg/kg. The class given is ADME, organism-based. The conditions noted are these: in vivo.
The nature of series [16]: Volume of distribution at steady state in dog. The class given is ADME, organism-based, Canis lupus familiaris. The conditions noted are these: in vivo, read-out: Vdss.
Series [17] can be described thus: Half life in dog. The class given is ADME, organism-based, Canis lupus familiaris. The conditions noted are these: in vivo.
Series [18] in a line: Cmax in dog. The class given is ADME, organism-based, Canis lupus familiaris. The following applies: in vivo.
Series [19] in a line: Oral bioavailability in dog. The conditions noted are these: in vivo. The class given is ADME, organism-based, Canis lupus familiaris.
Series [20] in a line: Plasma clearance in monkey. The following applies: rhesus monkey.
A short description of series [21]: Volume of distribution at steady state in monkey. The class given is ADME, organism-based, Macaca mulatta. The conditions noted are these: rhesus monkey, in vivo; read-out: Vdss.
Series [22] is described as follows: Half life in monkey. The class given is ADME, organism-based, Macaca mulatta. The following applies: rhesus monkey, in vivo.
Series [23] in a line: Cmax in monkey. The class given is ADME, organism-based, Macaca mulatta. The conditions noted are these: rhesus monkey, in vivo.
A short description of series [24]: Oral bioavailability in monkey. The class given is ADME, organism-based, Macaca mulatta. The following applies: rhesus monkey, in vivo.
A short description of series [25]: in vivo. The following applies: dog, plasma.

Regarding `O=C(NCC1CCCCC1)c1cc(-n2ncc(=O)[nH]c2=O)ccc1Cl`, the concentration for half-maximal inhibition (IC50) on P2X purinoceptor 7 [1] was determined as 1.3 µM.
Take `O=C(NCCCc1ccccc1)c1cc(-n2ncc(=O)[nH]c2=O)ccc1Cl`: in series [2], the inhibition is 0%.
Take `Cn1c(=O)cnn(-c2ccc(Cl)c(C(=O)NCC3(O)CCCCCC3)c2)c1=O`: at P2X purinoceptor 7 [1], the half-maximal inhibitory concentration (IC50) amounted to 0.042 µM.
Regarding `O=C(NCc1ccccc1)c1cc(-n2ncc(=O)[nH]c2=O)ccc1Cl`, in [2], the inhibition was found to be 15%.
Take `O=C(NCCc1ccncc1)c1cc(-n2ncc(=O)[nH]c2=O)ccc1Cl`: the inhibition in series [2] stood at 22%.
Turning to `O=C(NCC1CCOCC1)c1cc(-n2ncc(=O)[nH]c2=O)ccc1Cl`, the half-inhibitory concentration (IC50) on P2X purinoceptor 7 [1] was more than 5 µM.
Take `O=C(NCCc1ccccc1Cl)c1cc(-n2ncc(=O)[nH]c2=O)ccc1Cl`: the IC50 on P2X purinoceptor 7 [3] was 0.3 µM; on P2X purinoceptor 7 [1], 0.29 µM; at P2X purinoceptor 7 [5], more than 10 µM. For the same compound, the IC90 in series [4] is more than 10 µM. The fraction unbound in series [6] is less than 0.005. Further, the Stability result with Liver microsomes and in the series on Hepatocyte was “Stable” each time. Besides, in series [7], the apparent permeability from apical to basolateral (Papp A→B) was 100 nm/s. In addition, in series [8], the basolateral-to-apical permeability (Papp B→A) came to 210 nm/s. Moreover, in the series on Plasma, the Fu was found to be 0.005. This compound displayed a maximum concentration (Cmax) in series [9] of 2 µg/mL. Further, the clearance in the series “in vivo [10]” came to 0.57 L/h/kg.
On to `CCCCC(CC)COC(=O)c1cc(-n2ncc(=O)[nH]c2=O)ccc1Cl` (stereo unspecified), for which the inhibition in [2] worked out at 19%.
For the compound `CCCCC(CC)CN(C)C(=O)c1cc(-n2ncc(=O)[nH]c2=O)ccc1Cl` (stereo unspecified), the inhibition in series [2] is 0%.
Take `CCCCCNC(=O)c1cc(-n2ncc(=O)[nH]c2=O)ccc1Cl`: at P2X purinoceptor 7 [1], the IC50 amounted to 2.8 µM.
Regarding `O=C(NCC1CCCC1)c1cc(-n2ncc(=O)[nH]c2=O)ccc1Cl`, the inhibition in [2] was 0%.
`O=C(NCC1(O)CCCCCC1)c1cc(-n2ncc(=O)[nH]c2=O)ccc1F`: the inhibition in [11] is 20%.
In the case of `COCCn1c(=O)cnn(-c2ccc(Cl)c(C(=O)NCC3(O)CCCCCC3)c2)c1=O`, the values for the half-maximal inhibitory concentration (IC50) at P2X purinoceptor 7 [1] and on P2X purinoceptor 7 [5] were 0.019 µM and 0.071 µM, respectively.
Consider `O=C(NCC1(O)CCCCCC1)c1cc(-n2ncc(=O)[nH]c2=O)ccc1Cl`, for which the IC50 at P2X purinoceptor 7 [3] was determined as 0.015 µM; at P2X purinoceptor 7 [1] it was 0.083 µM; at P2X purinoceptor 7 [5], 0.447 µM. Besides, the IC90 in [4] is 1 µM. For the same compound, in series [12], the fraction unbound was 0.18. Besides, the Vd in series [13] turned out to be 8.5 L/kg; in series [16], 0.6 L/kg; in [21], 1.5 L/kg. The half-life in [14] is 3.2 h; in [17], 3.8 h; in [22], 3.4 h. The Cmax in series [9] turned out to be 1.3 µg/mL; in series [18], 7.4 µg/mL; in [23], 0.6 µg/mL. The bioavailability was found to be 75% in series [15], 84% in series [19] and 72% in [24]. Also, the clearance is 1.26 L/h/kg in series [20], 1.2 L/h/kg in the series “in vivo [10]” and 0.228 L/h/kg in the series “in vivo [25]”.
On to `N#Cc1ccc(-n2ncc(=O)[nH]c2=O)cc1C(=O)NCC1(O)CCCCCC1`, for which the inhibition in series [11] stood at 0%.

The values above are taken from ChEMBL document CHEMBL1777794, “Optimization of the physicochemical and pharmacokinetic attributes in a 6-azauracil series of P2X7 receptor antagonists leading to the discovery of the clinical candidate CE-224,535” (Bioorg Med Chem Lett, 2011).
